Assay results: the NIST ThermoML archive (doi:10.1021/je700521t)

Assay: xn = mol fraction of the nth substance listed
Conditions: 101 kPa, Liquid

CCCCCCCC[n+]1ccn(C)c1.F[B-](F)(F)F [1-methyl-3-octylimidazolium tetrafluoroborate] + CCO
Conditions	mass density [kg/m3]	viscosity [mPa·s]
283.15 K, x2 = 0.081	1122.9	718.47
283.15 K, x2 = 0.161	1118	492.73
283.15 K, x2 = 0.315	1098.7	167.49
283.15 K, x2 = 0.511	1064.7	51.57
283.15 K, x2 = 0.612	1039.7	27.12
283.15 K, x2 = 0.753	991.3	12.45
288.15 K, x2 = 0.081	1119.4	507.18
288.15 K, x2 = 0.161	1114.5	354.89
288.15 K, x2 = 0.315	1095.2	127.69
288.15 K, x2 = 0.511	1061.3	41.43
288.15 K, x2 = 0.612	1036	22.05
288.15 K, x2 = 0.753	987.5	10.36
293.15 K, x2 = 0.081	1115.9	366.59
293.15 K, x2 = 0.161	1111	261.54
293.15 K, x2 = 0.315	1091.8	98.92
293.15 K, x2 = 0.511	1057.8	35.28
293.15 K, x2 = 0.612	1032.2	18.24
293.15 K, x2 = 0.753	983.6	8.79
298.15 K, x2 = 0.081	1112.4	268.93
298.15 K, x2 = 0.161	1107.5	194.74
298.15 K, x2 = 0.315	1088.3	78.63
298.15 K, x2 = 0.511	1054.2	28.87
298.15 K, x2 = 0.612	1028.4	15.35
298.15 K, x2 = 0.753	979.7	7.53
303.15 K, x2 = 0.081	1108.9	203.35
303.15 K, x2 = 0.161	1104	150.36
303.15 K, x2 = 0.315	1084.8	63.33
303.15 K, x2 = 0.511	1050.6	23.94
303.15 K, x2 = 0.612	1024.7	12.98
303.15 K, x2 = 0.753	975.7	6.51
308.15 K, x2 = 0.081	1105.5	156.29
308.15 K, x2 = 0.161	1100.7	117.36
308.15 K, x2 = 0.315	1081.3	51.59
308.15 K, x2 = 0.511	1046.9	20.13
308.15 K, x2 = 0.612	1020.9	11.16
308.15 K, x2 = 0.753	971.8	5.66
313.15 K, x2 = 0.081	1102.2	123.27
313.15 K, x2 = 0.161	1097.3	93.2
313.15 K, x2 = 0.315	1077.8	42.48
313.15 K, x2 = 0.511	1043.2	17.09
313.15 K, x2 = 0.612	1017.2	9.61
313.15 K, x2 = 0.753	968	4.96
318.15 K, x2 = 0.081	1098.8	97.69
318.15 K, x2 = 0.161	1093.9	75.37
318.15 K, x2 = 0.315	1074.3	35.84
318.15 K, x2 = 0.511	1039.3	14.67
318.15 K, x2 = 0.612	1013.4	8.39
318.15 K, x2 = 0.753	964.1	4.38
323.15 K, x2 = 0.081	1095.4	79.43
323.15 K, x2 = 0.161	1090.5	61.66
323.15 K, x2 = 0.315	1070.9	30.38
323.15 K, x2 = 0.511	1034.9	12.72
323.15 K, x2 = 0.612	1009.7	7.39
323.15 K, x2 = 0.753	960.2	3.89
328.15 K, x2 = 0.081	1092.1	65.03
328.15 K, x2 = 0.161	1087.1	51.12
328.15 K, x2 = 0.315	1067.4	26.04
328.15 K, x2 = 0.511	1030.3	11.1
328.15 K, x2 = 0.612	1005.9	6.55
328.15 K, x2 = 0.753	956.4	3.5
333.15 K, x2 = 0.081	1088.7	54.15
333.15 K, x2 = 0.161	1083.7	42.99
333.15 K, x2 = 0.315	1064	22.54
333.15 K, x2 = 0.511	1028.7	9.77
333.15 K, x2 = 0.612	1002.2	5.8
333.15 K, x2 = 0.753	952.5	3.17
338.15 K, x2 = 0.081	1085.4	45.46
338.15 K, x2 = 0.161	1080.3	36.47
338.15 K, x2 = 0.315	1060.5	19.73
338.15 K, x2 = 0.511	1025.2	8.65
338.15 K, x2 = 0.612	998.5	5.18
338.15 K, x2 = 0.753	948.6	2.89
343.15 K, x2 = 0.081	1082.1	39.03
343.15 K, x2 = 0.161	1077	31.51
343.15 K, x2 = 0.315	1057.1	17.42
343.15 K, x2 = 0.511	1021.3	7.74
343.15 K, x2 = 0.612	994.7	4.7
343.15 K, x2 = 0.753	944.7	2.65
